Counter-ions that a name gives are not always drawn.
Test system: thalamic explants from E14.5 embryos of ABX-treated dams
Assay: Axon outgrowth assay with individual metabolite supplementation
Type: cell-based, C57Bl/6J mice
Settings: for Length of ABX thalamic axons proximal to hypothalamus / Number of ABX thalamic axons proximal to hypothalamus: ABX thalamic + ABX hypothalamic explant; for Length of ABX thalamic axons proximal to hypothalamus / Number of ABX thalamic axons proximal to hypothalamus / Length of axons proximal to striatal explant: 1 nM, 100 nM, 10 uM; for Length of axons proximal to striatal explant / Number of axons per 200 μm of thalamic perimeter proximal to striatal explant: ABX thalamic + ABX striatal explant, 48 hrs; for Number of axons per 200 μm of thalamic perimeter proximal to striatal explant: physiologically-relevant concentrations (1 nM, 100 nM, 10 uM)
Method: Dams were sacrificed on E14.5 by cervical dislocation to preclude confounding effects of CO2 on maternal and fetal physiology. Thalamic, striatal, and hypothalamic explants were isolated from E14.5 embryonic brains and transferred to ice-cold HBSS (Invitrogen). Explants were sliced to ˜500 μm and placed on a thin layer of 50 μl BD Matrigel (Beckton Dickinson) on a 15 mm coverslip. Each coverslip contained a thalamic explant at the center and a striatal and hypothalamic explant on each side, at 1 mm equidistant from the thalamic explant. Explants were incubated in warmed neurobasal complete media containing 1× neurobasal medium (Thermofisher Scientific), 1× GlutaMax (Thermofisher Scientific), and 2% B-27 (Thermofisher Scientific) for 48 hrs at 37° C., and fed with fresh media every 24 hrs. After 48 hrs, media was gently aspirated and replaced with 4% PFA for 1 hr and processed for immunofluorescence staining with 1:500 (3 tubulin III anti-mouse antibody (EMD Millipore MAB1637). Axons were imaged using a Leica DMi8 epifluorescence microscope and quantified using Fiji software^78. Axon numbers were quantified per 200 μm of thalamus at a distance of 200 μm from the thalamus. Length of axons was quantified by averaging length of the 10 longest axons proximal to striatum or hypothalamus. Data for number and length of axons in the explant co-culture system was normalized by subtraction of data from monoculture of thalamic explants from the corresponding experimental group.
Thalamic, striatal, and hypothalamic explants from ABX-treated dams were harvested and cultured as described in the “axon outgrowth assay” section above. For metabolite treatment, BD Matrigel was supplemented with […], 100 nM, or 1 nM of trimethylamine-N-oxide (TMAO), 5-aminovalerate (5-AV), imidazole propionate (IP), 3-indoxyl-sulfate (3-IS), or hippurate (llip)^48,79-81. 5-aminovalerate is a precursor to N,N,N-trimethyl-5-aminovalerate (TMAV), which is not commercially available, and both are implicated in carnitine metabolism^82,83. Metabolite concentrations were determined as physiologically relevant, based on reported concentrations detected in blood and/or cerebrum from the mouse multiple tissue metabolomic database (MMIvIDB), human metabolome database (HMDB) and existing literature^48,79-81. Axons were stained, imaged and analyzed as described in the “axon outgrowth assay” section above.

Row | SMILES | Length of ABX thalamic axons proximal to hypothalamus | Number of ABX thalamic axons proximal to hypothalamus | Length of axons proximal to striatal explant | Number of axons per 200 μm of thalamic perimeter proximal to striatal explant
1 | O=S(=O)(O)Oc1c[nH]c2ccccc12 [3-IS, 3-indoxyl sulfate] | No statistically significant changes | No statistically significant changes | modest, but not statistically significant, increases in axon length | but not 3-IS, significantly increased axon number
2 | NCCCCC(=O)O [5-AV, 5-aminovalerate] | No statistically significant changes | No statistically significant changes | significantly increased axon length | significantly increased axon number to levels seen in fetal brain explants from embryos of SPF dams
3 | O=C(O)CNC(=O)c1ccccc1 [HIP, hippurate] | No statistically significant changes | No statistically significant changes | no effect | significantly increased axon number to levels seen in fetal brain explants from embryos of SPF dams
4 | O=C(O)CCc1cnc[nH]1 [IP, imidazole propionate] | No statistically significant changes | No statistically significant changes | significantly increased axon length | significantly increased axon number to levels seen in fetal brain explants from embryos of SPF dams
5 | C[N+](C)(C)[O-] [TMAO, trimethylamine-N-oxide] | No statistically significant changes | No statistically significant changes | modest, but not statistically significant, increases in axon length | significantly increased axon number to levels seen in fetal brain explants from embryos of SPF dams
